The results in this text go back to BindingDB's records for doi:10.1016/s1074-5521(99)80118-5 (Princeton University, 1999).

Some results are limits rather than exact numbers.

This test deals with T1, Tyrosine-protein kinase ZAP-70 (Homo sapiens, UniProt P43403).
T1 sequence (P43403 whole entry): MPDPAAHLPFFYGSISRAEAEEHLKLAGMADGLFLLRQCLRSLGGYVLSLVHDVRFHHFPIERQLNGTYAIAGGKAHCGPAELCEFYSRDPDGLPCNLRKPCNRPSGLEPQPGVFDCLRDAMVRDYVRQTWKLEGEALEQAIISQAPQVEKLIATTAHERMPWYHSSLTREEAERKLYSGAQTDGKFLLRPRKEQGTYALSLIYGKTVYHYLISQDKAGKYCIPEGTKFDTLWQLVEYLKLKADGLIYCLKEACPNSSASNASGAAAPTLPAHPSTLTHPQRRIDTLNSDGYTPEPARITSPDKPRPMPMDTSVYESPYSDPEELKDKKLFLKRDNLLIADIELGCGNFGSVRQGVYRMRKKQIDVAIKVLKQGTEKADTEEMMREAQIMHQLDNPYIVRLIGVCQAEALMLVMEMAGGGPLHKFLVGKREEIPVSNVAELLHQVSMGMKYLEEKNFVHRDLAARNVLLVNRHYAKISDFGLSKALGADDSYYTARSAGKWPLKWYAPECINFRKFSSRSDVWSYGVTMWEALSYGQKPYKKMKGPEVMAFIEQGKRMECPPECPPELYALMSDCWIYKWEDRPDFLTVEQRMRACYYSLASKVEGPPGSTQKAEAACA
Kind of test: Inhibition Assay. An excerpt: Inhibition of protein tyrosine kinases

The IC50 is the concentration that inhibits the measured activity by half. Higher therefore signals weaker potency. The compound `Cc1ccc(-c2nn(C(C)(C)C)c3ncnc(N)c23)cc1` displayed an IC50 above 100 µM.
